Measured values reported in article PMC12669672, “Structural insights into selective and dual antagonism of EP2 and EP4 prostaglandin receptors” (The EMBO Journal, 2025).
“And” between values parts separate entries of the source, which are not always exact repeats. Identical values can stand only once. Each block holds one compound with its values, some of them ahead of it.

Assays:
EP4 S73A = biological target: T1, EP4 S73A (Homo sapiens, UniProt P35408, S73A); assay: GloSensor cAMP assay, antagonism of PGE2-induced cAMP; assay type: cell-based; conditions: for cAMP activity (∆pIC50 from EP4 WT): Grapiprant, S73A; for ΔpIC50: PGE2 0.5 nM, pIC50 mutant - pIC50 WT, mean
T1 construct: The full-length EP2 or EP4 was cloned into the pcDNA3.1 vector; FLAG (N); expressed in transfected cells; host or cells: AD293 cells

EP4 = biological target: EP4; design: method as in Nakao et al, 2007; conditions: [3H]-PGE2 binding assay; ref Nakao et al, 2007; cited from earlier work
EP4-L99M = biological target: T2, EP4-L99M (Homo sapiens, UniProt P35408, L99M); assay: GloSensor cAMP assay, antagonism of PGE2-induced cAMP, chimeric studies; assay type: cell-based; conditions: for ΔpIC50: PGE2 induced, pIC50 mutant - pIC50 WT, mean
T2 construct: The full-length EP2 or EP4 was cloned into the pcDNA3.1 vector (Invitrogen), incorporating an N-terminal FLAG tag; expressed in transfected cells; host or cells: AD293
Description: (§1) The full-length EP2 or EP4 was cloned into the pcDNA3.1 vector (Invitrogen), incorporating an N-terminal FLAG tag. AD293 cells were seeded in six-well plates containing DMEM supplemented with 10% dialyzed FBS 1 day prior to transfection. Following overnight growth, cells were transfected with a 1:1 ratio of receptor construct and GloSensor22F cAMP biosensor (Promega) plasmids.
(§2) Twenty-four hours post-transfection, the cells were transferred to CO2-independent media containing 2% GloSensor cAMP Reagent (Promega) and distributed into 384-well assay plates at a density of 4000 cells per well in 10 μL. […] The plates were then incubated at 37 °C for an additional hour before luminescence measurements were taken using an EnVision plate reader.
(§3) Data analysis was performed using GraphPad Prism software v8.0.1. A nonlinear regression analysis, employing a sigmoidal dose–response model, was conducted to determine the Emax values and half-maximum inhibitory concentrations (IC50) for each compound tested.

[1] = biological target: T3, constitutively active EP4 WT (Homo sapiens, UniProt P35408); assay: GloSensor cAMP assay, inhibition of constitutive activity; assay type: cell-based
T3 construct: The full-length EP2 or EP4 was cloned into the pcDNA3.1 vector (Invitrogen), incorporating an N-terminal FLAG tag; expressed in transfected cells; host or cells: AD293
Description: as §1, §2, §3

[2] = biological target: T4, constitutively active EP4 S73A (Homo sapiens, UniProt P35408, S73A); assay: as above; assay type: cell-based; conditions: for ΔpIC50: no PGE2, pIC50 mutant - pIC50 WT, mean
T4 construct: The full-length EP2 or EP4 was cloned into the pcDNA3.1 vector (Invitrogen), incorporating an N-terminal FLAG tag; expressed in transfected cells; host or cells: AD293
Description: as §1, §2, §3

EP2 = test system: EP2; design: method as in af Forselles et al, 2011; conditions: against PGE2-induced cAMP signaling in GloSensor cAMP assay; ref af Forselles et al, 2011; cited from earlier work

T4 sequence (P35408 whole entry S73A): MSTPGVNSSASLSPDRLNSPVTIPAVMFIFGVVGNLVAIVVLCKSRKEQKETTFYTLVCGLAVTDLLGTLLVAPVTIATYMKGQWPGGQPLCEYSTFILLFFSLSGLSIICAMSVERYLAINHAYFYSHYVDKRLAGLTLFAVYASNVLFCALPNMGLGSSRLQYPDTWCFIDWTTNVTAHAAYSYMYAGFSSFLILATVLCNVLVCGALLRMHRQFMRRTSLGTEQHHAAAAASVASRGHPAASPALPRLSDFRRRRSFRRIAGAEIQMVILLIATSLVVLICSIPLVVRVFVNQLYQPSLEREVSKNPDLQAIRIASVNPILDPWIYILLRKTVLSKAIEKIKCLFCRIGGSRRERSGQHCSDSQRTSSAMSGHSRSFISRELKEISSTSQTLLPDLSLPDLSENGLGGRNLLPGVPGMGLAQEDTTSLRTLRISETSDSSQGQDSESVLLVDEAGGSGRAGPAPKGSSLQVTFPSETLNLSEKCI
T1 sequence (P35408 whole entry S73A): as above
T3 sequence (P35408 whole entry): as the sequence (P35408 whole entry S73A) above, with A73S counted along it
T2 sequence (P35408 whole entry L99M): as the sequence (P35408 whole entry S73A) above, with A73S, L99M counted along it

- IC50 (EP4 S73A): 5.62 nM
- remaining activity at 0.01 µM (EP4 S73A; 1 h, Grapiprant log([M]) -8, read-out: % cAMP activity (normalized to WT)): 11.4%
- remaining activity at 0.001 µM (EP4 S73A; 1 h, Grapiprant log([M]) -9, read-out: % cAMP activity (normalized to WT)): 21.5%
- remaining activity at 0.0001 µM (EP4 S73A; 1 h, Grapiprant log([M]) -10, read-out: % cAMP activity (normalized to WT)): 24.9%
- remaining activity at 10 pM (EP4 S73A; 1 h, Grapiprant log([M]) -11, read-out: % cAMP activity (normalized to WT)): 27.6%
- remaining activity at 1 pM (EP4 S73A; 1 h, Grapiprant log([M]) -12, read-out: % cAMP activity (normalized to WT)): 23.6%
- cAMP activity (∆pIC50 from EP4 WT) (EP4 S73A; Mean): 0.985
- cAMP activity (∆pIC50 from EP4 WT) (EP4 S73A; single experiments 1st-3rd): 1.017 and 1.087 and 0.851
- ΔpIC50 (EP4 S73A): 0.99 ± 0.07
- ΔpIC50 (EP4 S73A; listed as grapiprant): enhanced the antagonism
- remaining activity at 0.1 µM (EP4-L99M; 1 h, Grapiprant log([M]) -7, single experiments 1st-3rd, Fig. S7C, read-out: % cAMP activity (normalized to WT)): 52.4%
- remaining activity at 0.0001 µM (EP4-L99M; 1 h, Grapiprant log([M]) -10, single experiments 1st-3rd, Fig. S7C, read-out: % cAMP activity (normalized to WT)): 83.5%
- remaining activity at 1 pM (EP4-L99M; 1 h, Grapiprant log([M]) -12, single experiments 1st-3rd, Fig. S7C, read-out: % cAMP activity (normalized to WT)): 85.6%
- ΔpIC50 (EP4-L99M): -0.23 ± 0.07
- IC50 [1]: 4.27 nM
- remaining activity at 0.1 µM ([1]; 1 h, Grapiprant log([M]) -7.00, EP4-WT, read-out: % cAMP activity (normalized to WT)): 4.26%
- remaining activity at 0.01 µM ([1]; 1 h, Grapiprant log([M]) -8.00, EP4-WT, read-out: % cAMP activity (normalized to WT)): 24.2%
- remaining activity at 0.001 µM ([1]; 1 h, Grapiprant log([M]) -9.00, EP4-WT, read-out: % cAMP activity (normalized to WT)): 84.9%
- remaining activity at 0.0001 µM ([1]; 1 h, Grapiprant log([M]) -10.00, EP4-WT, read-out: % cAMP activity (normalized to WT)): 92.5%
- remaining activity at 10 pM ([1]; 1 h, Grapiprant log([M]) -11.00, EP4-WT, read-out: % cAMP activity (normalized to WT)): 101%
- remaining activity at 1 pM ([1]; 1 h, Grapiprant log([M]) -12.00, EP4-WT, read-out: % cAMP activity (normalized to WT)): 101%
- Grapiprant cAMP activity (∆pIC50 from EP4 WT) ([1]; WT, single experiments 1st-3rd): 0.061 and -0.077 and -0.012
- IC50 [2]: 2.19 nM
- remaining activity at 10 µM ([2]; 1 h, Grapiprant log([M]) -5.00, EP4-S73A, read-out: % cAMP activity (normalized to WT)): 12.1%
- remaining activity at 1 µM ([2]; 1 h, Grapiprant log([M]) -6.00, EP4-S73A, read-out: % cAMP activity (normalized to WT)): 13.5%
- remaining activity at 0.1 µM ([2]; 1 h, Grapiprant log([M]) -7.00, EP4-S73A, read-out: % cAMP activity (normalized to WT)): 20.4%
- remaining activity at 0.01 µM ([2]; 1 h, Grapiprant log([M]) -8.00, EP4-S73A, read-out: % cAMP activity (normalized to WT)): 38.9%
- remaining activity at 0.001 µM ([2]; 1 h, Grapiprant log([M]) -9.00, EP4-S73A, read-out: % cAMP activity (normalized to WT)): 127%
- remaining activity at 1 pM ([2]; 1 h, Grapiprant log([M]) -12.00, EP4-S73A, read-out: % cAMP activity (normalized to WT)): 170%
- Grapiprant cAMP activity (∆pIC50 from EP4 WT), Mean ([2]; S73A, Mean): 0.215
- Grapiprant cAMP activity (∆pIC50 from EP4 WT) ([2]; S73A, single experiments 1st-3rd): 0.364 and 0.097 and 0.184
- ΔpIC50 [2]: 0.22 ± 0.08
- ΔpIC50 ([2]; listed as grapiprant): hardly influenced antagonistic potency
SMILES: CCc1nc2c(C)nc(C)cc2n1-c1ccc(CCNC(=O)NS(=O)(=O)c2ccc(C)cc2)cc1 [Grapiprant]
- Ki (EP4): 13 nM
- ΔpIC50 (EP4-L99M; listed as grapiprant): slightly decreased the antagonistic potency

SMILES: COc1ccc2cc(OCC3(C(=O)O)CN(C(=O)c4ccc(F)cc4)C3)ccc2c1 [PF-04418948]
- Kb (EP2): 1.8 nM
